The results in this text go back to US20030109418A1, “Methods for identifying compounds for inhibition of neoplastic lesions, and pharmaceutical compositions containing such compounds” (priority 1999, published 2003).

A word on the GI50: it is the concentration giving 50% growth inhibition. Broadly, the IC50 is the concentration that gives 50% inhibition. A high value points to weaker potency in that assay.

The conditions of data set [1]: dog, in vivo.
Data set [2] concerns LNCaP prostate tumor cell line. As to the kind of experiment: Histone-associated DNA fragmentation in prostate tumor cells. The data set is classed as cell-based. As to conditions: 50 μM free base, after 24 hours, sustained up to 4 days. As to the method:
The androgen-sensitive prostate tumor cell line, LNCaP (from ATCC (Rockville, Md.)) was propogated under standard conditions using […] medium containing 5% fetal calve serum and 2 mM glutamine. Primary prostate epithelial cell cultures (PrEC) derived from normal prostate (from Clonetics Inc. (San Diego, Calif.)) were grown under the same conditions as the tumor cell line except a serum-free medium optimized for the growth of such cultures was used (Clonetics Inc). For the experiments, LNCaP or PrEC cells were seeded in 96 well plates at a density of 10,000 cells per well. After 24 hours, the cells were treated with either vehicle (0.1% DMSO) or 50 μM Compound I (free base) solubilized in DMSO. After various drug treatment times (4, 24, 48, 72, or 99 hours) the cells were lysed and processed for measurement of histone-associated DNA as an indicator of apoptotic cell death (see, Piazza et al., Cancer Research 57: 2452-2459, 1997).
This is in marked contrast to conventional chemotherapeutics that induce apoptosis or necrosis in rapidly growing normal and neoplastic cells alike.

Data set [3] has as its system SW-480 colon adenocarcinoma cells. As to the kind of experiment: Apoptosis induction determined by morphology, SW-480. The data set is classed as cell-based, human. An excerpt: (§1) Following treatment with a compound, cultures can be assayed for apoptosis and necrosis by florescent microscopy following labeling with acridine orange and ethidium bromide. The method for measuring apoptotic cell number has previously been described by Duke & Cohen, “Morphological And Biochemical Assays Of Apoptosis,” Current Protocols In Immunology, Coligan et al., eds., 3.17.1-3.17.16 (1992, which is incorporated herein by reference).
(§2) For example, floating and attached cells can be collected by trypsinization and washed three times in PBS. Aliquots of cells can be centrifuged. The pellet can then be re-suspended in media and a dye mixture containing acridine orange and ethidium bromide prepared in PBS and mixed gently. The mixture can then be placed on a microscope slide and examined for morphological features of apoptosis.
In addition, the percent apoptosis for Compound I in SW-480 is shown in Table 12 at various drug concentrations.

In data set [4] the test system is NCI-H322M. The data set is described as follows: Growth inhibition, neutral red assay, NCI-H322M. It is filed as cell-based, human. The conditions noted are these: free base, five days. As to the method: (§3) Compound I's activity is not confined to activity against colon cancer cell lines or animal models of colon cancer. It has a broad range of anti-neoplastic effects in various neoplastic cell lines. Various types of human cancer cell lines were propagated under sterile conditions in RPMI 1640 medium with 10% fetal bovine serum, 2 mM L-glutamine and sodium bicarbonate. To determine growth inhibitory effects of Compound I, cells were seeded in 96-well plates at a density of 1000 cells per well. Twenty-four hours after plating, the cells were dosed with various concentrations of the free base of Compound I solubilized in DMSO (final concentration 0.1%). The effect of the drug on tumor cell growth was determined using the neutral red cytotoxicity assay following five days of continuous treatment. Neutral red is a dye that is selectively taken up by viable cells by an ATP-dependent transport mechanism.

Data set [5] has as its system K-562. The data set is described as follows: Growth inhibition, neutral red assay, K-562. It is filed as cell-based. The conditions noted are these: Homo sapiens, K562; HCl salt. As to the method:
as §3

Data set [6] deals with HT-29 cells. The data set is described as follows: Apoptosis and necrosis by morphology (acridine orange and ethidium bromide). The data set is classed as cell-based, human. The conditions noted are these: HT-29 treated for six days.
From the text: Apoptosis occurs naturally during normal tissue turnover and during embryonic development of organs and limbs. Apoptosis also is induced by cytotoxic T-lymphocytes and natural killer cells, by ionizing radiation and by certain chemotherapeutic drugs. Inappropriate regulation of apoptosis is thought to play an important role in many pathological conditions including cancer, AIDS, or Alzheimer's disease, etc. Compounds can be screened for induction of apoptosis using cultures of tumor cells maintained under conditions as described above. Treatment of cells with test compounds involves either pre- or post-confluent cultures and treatment for two to seven days at various concentrations. Apoptotic cells are measured in both the attached and “floating” compartments of the cultures. Both compartments are collected by removing the supernatant, trypsinizing the attached cells, and combining both preparations following a centrifugation wash step (10 minutes, 2000 rpm). The protocol for treating tumor cell cultures with sulindac and related compounds to obtain a significant amount of apoptosis has been described in the literature. (See, Piazza, G. A., et al., Cancer Research, 55:3110-16, 1995, which is incorporated herein by reference). The novel features include collecting both floating and attached cells, identification of the optimal treatment times and dose range for observing apoptosis, and identification of optimal cell culture conditions.
as §1, §2
Reference compounds and test compounds were analyzed for their novel PDE inhibitory activity in accordance with the protocols for the assay, supra. […] Apoptotic and necrotic cell death was determined previously (Duke and Cohen, In: Current Protocols in Immunology, 3.17.1-3.17.16, New York, John Wiley and Sons, 1992). […] All data were collected from the same experiment.
The apoptosis inducing activity for a series of phosphodiesterase inhibitors was determined. HT-29 cell were treated for 6 days with various inhibitors of phosphodiesterase. Apoptosis and necrosis were determined morphologically after acridine orange and ethidium bromide labeling in accordance with the assay described, supra.

The subject of data set [7] is Bronchial Epithelial Cells. As to the kind of experiment: Growth inhibition, SRB assay, bronchial epithelial cells. It is filed as cell-based. As to conditions: Epithelial cell. The text has this:
A compound's ability to inhibit tumor cell growth can be measured using the HT-29 human colon carcinoma cell line obtained from ATCC. HT-29 cells have previously been characterized as a relevant colon tumor cell culture model (Fogh, J., and Trempe, G. In: Human Tumor Cells in Vitro, J. Fogh (eds.), Plenum Press, New York, pp. 115-159, 1975). HT-29 cells are maintained in RPMI media supplemented with 5% fetal bovine calf serum (Gemini Bioproducts, Inc., Carlsbad, Calif.) and 2 mm glutamine, and 1% antibiotic-antimycotic in a humidified atmosphere of 95% air and 5% CO2 at 37° C. Briefly, HT-29 cells are plated at a density of 500 cells/well in 96 well microtiter plates and incubated for 24 hours at 37° C. prior to the addition of compound. […] After six days in culture, the cells are fixed by the addition of cold trichloroacetic acid to a final concentration of 10% and protein levels are measured using the sulforhodamine B (SRB) colorimetric protein stain assay as previously described by Skehan, P., Storeng, R., Scudiero, D., Monks, A., McMahon, J., Vistica, D., Warren, J. T., Bokesch, H., Kenney, S., and Boyd, M. R., “New Colorimetric Assay For Anticancer-Drug Screening,” J. Natl. Cancer Inst. […]
To show the effectiveness of this screening method on various forms of neoplasia, compounds were tested on numerous cell lines. […] The IC50 values were determined by the SRB assay. […]
Background: The SRB assay estimates cell density from bound dye.

Where a name gives a salt, the structure may show the parent alone.

In the case of `CC1=C(CC(=O)NCc2ccccc2)c2cc(F)ccc2/C1=C\c1ccncc1` [Compound I, (Z)-5-fluoro-2-methyl-(4-pyridylidene)-3-(N-benzyl)indenylacetamide hydrochloride], the “signs of toxicity, single dose in capsules” value in data set [1] (1000 mg/kg) is listed as “no signs of toxicity”. Moreover, the “drug-related effects, single and seven consecutive doses” value in data set [1] (1000 mg/kg/day) was “At no time in either dosing phase were any obvious signs of drug-related effects observed”. The “histone-associated fragmented DNA in LNCaP” value in data set [2] was “significant increase in fragmented DNA”. The “% Apoptosis” value is reported as 16% in data set [3] (0.35 μM), 27% in data set [3] (0.7 μM) and 88% in data set [3] (1.5 μM). Besides, the GI50 in data set [4] (Homo sapiens, NCI-H322M, 120 h) is 2.1 µM; in data set [5] it was 1.8 µM. In addition, the “GI90 μM, NCI-H322M” value in data set [4] worked out at 13.2 µM.
With `CC1=C(CC(=O)O)c2cc(F)ccc2/C1=C\c1ccc(S(C)(=O)=O)cc1` [Exisulind, 5-fluoro-2-methyl-1-(p-methylsulfonylbenzylidene)-3-indenylacetic acid], the “apoptotic and necrotic cell death” value in data set [6] is “capable of causing apoptotic cell death without inducing necrosis”. In addition, the IC50 in data set [7] came out at 90 µM.
